Reference: the supplement of paper PMC13380429

Columns and labels:
Details in all cases: 72 h
[1] = system: Caco-2; experiment: cell viability relative to DMSO; higher = less toxic
[2] = system: Calu-3; experiment: as above
[3] = system: HepG2; experiment: as above
[4] = system: U2OS; experiment: as above
[5] = system: Vero E6; experiment: as above
[6] = system: Caco-2; experiment: relative viability EC50 (midpoint between 100% and the lowest measured viability); higher = less toxic
[7] = system: Calu-3; experiment: as above
[8] = system: HepG2; experiment: as above
[9] = system: U2OS; experiment: as above
[10] = system: Vero E6; experiment: as above
[11] = system: Caco-2; experiment: drug sensitivity score (DSS) for viability; higher = more toxic; extreme values may be limits of the assay
[12] = system: Calu-3; experiment: as above
[13] = system: HepG2; experiment: as above
[14] = system: U2OS; experiment: as above
[15] = system: Vero E6; experiment: as above

Row | Compound | cell viability ([1]; 1 nM) [%] | cell viability ([1]; 10 nM) [%] | cell viability ([1]; 100 nM) [%] | cell viability ([1]; 1000 nM) [%] | cell viability ([1]; 10000 nM) [%] | cell viability ([2]; 1 nM) [%] | cell viability ([2]; 10 nM) [%] | cell viability ([2]; 100 nM) [%] | cell viability ([2]; 1000 nM) [%] | cell viability ([2]; 10000 nM) [%] | cell viability ([3]; 1 nM) [%] | cell viability ([3]; 10 nM) [%] | cell viability ([3]; 100 nM) [%] | cell viability ([3]; 1000 nM) [%] | cell viability ([3]; 10000 nM) [%] | cell viability ([4]; 1 nM) [%] | cell viability ([4]; 10 nM) [%] | cell viability ([4]; 100 nM) [%] | cell viability ([4]; 1000 nM) [%] | cell viability ([4]; 10000 nM) [%] | cell viability ([5]; 1 nM) [%] | cell viability ([5]; 10 nM) [%] | cell viability ([5]; 100 nM) [%] | cell viability ([5]; 1000 nM) [%] | cell viability ([5]; 10000 nM) [%] | relative viability EC50 [6] [µM] | relative viability EC50 [7] [µM] | relative viability EC50 [8] [µM] | relative viability EC50 [9] [µM] | relative viability EC50 [10] [µM] | drug sensitivity score [11] | drug sensitivity score [12] | drug sensitivity score [13] | drug sensitivity score [14] | drug sensitivity score [15]
1 | NCCCCCCCCCCNS(=O)(=O)c1cccc2c(Cl)cccc12 [A-7] | 108 | 95.5 | 107 | 99.7 | 97.3 | 97.8 | 98.8 | 96.5 | 95.9 | 95.1 | 112 | 102 | 98.6 | 108 | 95.8 | 99.2 | 106 | 97.4 | 99.8 | 93.9 | 97.3 | 98.4 | 95.2 | 101 | 94.7 | > 10 | > 10 | > 10 | > 10 | > 10 | 0 | 0 | 0 | 0 | 0
2 | N[C@@H]1CCN(c2cccnc2)C1 [ABT-202] | 101 | 102 | 96 | 95.7 | 106 | 93.1 | 90.3 | 99.8 | 97.5 | 99.3 | 97.8 | 99 | 104 | 105 | 109 | 96.1 | 98.8 | 96.1 | 102 | 103 | 102 | 97.4 | 104 | 94.5 | 108 | > 10 | > 10 | > 10 | > 10 | > 10 | 0 | 0 | 0 | 0 | 0
3 | O=C1COc2c(CCNCCN(C(=O)CCNCCc3ccc(Cl)c(Cl)c3)C3CCCCC3)ccc(O)c2N1 [AZ505] | 104 | 98.4 | 95.8 | 97.8 | 97.9 | 88.2 | 89.6 | 108 | 102 | 105 | 95.9 | 98.6 | 118 | 97.2 | 89.4 | 102 | 101 | 99.2 | 103 | 91.2 | 107 | 99.4 | 104 | 99.7 | 109 | > 10 | > 10 | > 10 | > 10 | > 10 | 0 | 0 | 0 | 0 | 0
4 | CN(CCc1ccc(Cl)c(Cl)c1)CCN1CCCC1 [BD-1008] | 101 | 96.7 | 95.5 | 93.8 | 94.2 | 95.8 | 98.5 | 94.6 | 96.9 | 101 | 91.5 | 107 | 104 | 117 | 106 | 97.4 | 96.5 | 97 | 93.2 | 93.3 | 100 | 96.2 | 94.2 | 95 | 106 | > 10 | > 10 | > 10 | > 10 | > 10 | 0 | 0 | 0 | 0 | 0
5 | O=C(O)c1cc2ccccc2s1 [BL-5583] | 97.7 | 107 | 102 | 102 | 100 | 98 | 106 | 106 | 98.7 | 141 | 112 | 109 | 97.4 | 98.8 | 110 | 103 | 105 | 100 | 100 | 98 | 102 | 95.7 | 97.5 | 101 | 93 | > 10 | > 10 | > 10 | > 10 | > 10 | 0 | 0 | 0 | 0 | 0
6 | CNC(=O)c1ccc2c(c1)S(=O)(=O)c1ccccc1C2=O [BW-616U] | 96.6 | 108 | 111 | 92.4 | 99.4 | 115 | 104 | 102 | 100 | 96.7 | 109 | 106 | 92.7 | 110 | 104 | 99.1 | 95 | 100 | 99.4 | 98.9 | 95.2 | 95.9 | 98.1 | 109 | 106 | > 10 | > 10 | > 10 | > 10 | > 10 | 0 | 0 | 0 | 0 | 0
7 | CCCCCn1cc(C(=O)NC23CC4CC(CC(C4)C2)C3)c(=O)c2cc(-c3ccccc3)ccc21 [COR-170] | 90.9 | 103 | 100 | 100 | 98.3 | 105 | 89.2 | 104 | 98.2 | 97 | 103 | 93.6 | 91 | 105 | 92.1 | 96.2 | 99.9 | 98.3 | 94.7 | 99.9 | 100 | 97.7 | 103 | 106 | 94.8 | > 10 | > 10 | > 10 | > 10 | > 10 | 0 | 0 | 0 | 0 | 0
8 | NC(=O)c1ccc(-c2nc(-c3ccc4c(c3)OCCO4)c(-c3ccccn3)[nH]2)cc1 [D-4476] | 93 | 95.1 | 92.4 | 92.8 | 98.6 | 84.4 | 101 | 96.1 | 108 | 98.8 | 105 | 103 | 96.3 | 96 | 105 | 96.1 | 97.9 | 96.7 | 99.5 | 91.9 | 102 | 93.4 | 100 | 106 | 106 | > 10 | > 10 | > 10 | > 10 | > 10 | 0 | 0 | 0 | 0 | 0
9 | CN1CCN(C(=O)O[C@H]2c3nccnc3C(=O)N2c2ccc(Cl)cn2)CC1 [ESZOPICLONE] | 93.8 | 98.3 | 94.3 | 98.6 | 100 | 109 | 106 | 91.2 | 104 | 99.6 | 97.2 | 95.2 | 92.8 | 102 | 101 | 98.3 | 87.6 | 99.5 | 98.3 | 96.6 | 97.3 | 101 | 93.6 | 97.2 | 111 | > 10 | > 10 | > 10 | > 10 | > 10 | 0 | 0 | 0 | 0 | 0
10 | NC(=O)c1cccc(-c2cc(Nc3ccc(OC(F)(F)F)cc3)ncn2)c1 [GNF-2] | 102 | 102 | 104 | 87.1 | 83.7 | 104 | 103 | 97.9 | 90.3 | 86.6 | 108 | 99.6 | 93.4 | 96.4 | 77.3 | 103 | 99.2 | 99.1 | 102 | 103 | 104 | 99 | 94.6 | 106 | 102 | > 10 | > 10 | > 10 | > 10 | > 10 | 1.3 | 0.5 | 1.3 | 0 | 0
11 | O=S(=O)(Cc1ccccc1)Nc1ccc(-c2ccc3c(cnn3-c3ccc(F)cc3)c2)c(C(F)(F)F)c1 [GSK9027] | 90.8 | 98.6 | 99.7 | 97.7 | 85.5 | 103 | 105 | 97.6 | 92.2 | 97.1 | 96 | 94.4 | 95.3 | 104 | 86.3 | 94.7 | 93.7 | 100 | 95.9 | 93.7 | 96 | 94.2 | 91.1 | 95.2 | 110 | > 10 | > 10 | > 10 | > 10 | > 10 | 0.4 | 0 | 0.1 | 0 | 0
